# Experimental data from US20010007907A1, “3-EPI COMPOUNDS OF VITAMIN D3 AND USES THEREOF” (WOMEN AND INFANTS HOSPITAL, priority 1997, published 2001).
# Like-named read-outs stand apart in the source and are kept apart here.
# Assays:
# [1] = biological target: T1, plasma vitamin D binding protein (DBP) (Homo sapiens, UniProt P02774); assay: Competitive ligand binding to plasma vitamin D binding protein (RCI); details: fold over 1α,25(OH)2D3
# T1 sequence (P02774 17-474): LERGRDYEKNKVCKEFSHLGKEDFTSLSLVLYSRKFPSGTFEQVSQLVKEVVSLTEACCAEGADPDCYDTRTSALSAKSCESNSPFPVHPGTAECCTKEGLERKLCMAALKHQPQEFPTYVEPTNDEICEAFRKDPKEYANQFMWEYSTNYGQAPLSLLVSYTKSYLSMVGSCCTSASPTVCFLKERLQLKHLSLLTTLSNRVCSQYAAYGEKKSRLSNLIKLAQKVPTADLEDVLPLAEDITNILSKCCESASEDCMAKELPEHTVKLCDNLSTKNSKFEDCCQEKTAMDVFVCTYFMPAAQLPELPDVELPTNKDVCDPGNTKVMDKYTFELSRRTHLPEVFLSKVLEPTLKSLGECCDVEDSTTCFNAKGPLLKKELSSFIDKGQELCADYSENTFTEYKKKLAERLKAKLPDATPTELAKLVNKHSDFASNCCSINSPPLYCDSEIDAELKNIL
# Source text: The elevated levels of 3-epi binding indicate that 3-epi forms bind to DBP more avidly than their isomeric counterparts. Such enhanced binding may in turn enhance the stability of 3-epi forms in the plasma, and thus may explain the prolonged presence of 3-epi metabolites in vivo.
# Ligand binding assays are well known in the art. […] Such plots give linear curves characteristic for each test analog, the slopes of which are equal to the analog's competitive index (Wecksler, W. R. and Norman, A. W. (1980) Methods of Enzymol. 67:494-500).
# [2] = tested on: keratinocytes; assay: Keratinocyte growth inhibition (cell number per well); assay type: cell-based, human; details: for inhibition of keratinocyte growth: result in words; for potency at inhibiting growth of keratinocytes compared with 1α,25(OH)2-3-epi-D3: data not shown
# Description: To address the effect of 3-epi vitamin D3 compounds on keratinocyte growth, keratinocyte cultures were established at 25.000 cells/per well on day 0 in KGM. […] The cells were allowed to grow for 4 more days with one refeeding on day 3. Number of cells per well was determined on day 4.
# [3] = tested on: bovine parathyroid cells; assay: Inhibition of PTH secretion in bovine parathyroid cells; assay type: cell-based; details: result in words
# Description: To determine the effect of 3-epi vitamin D3 compounds on parathyroid hormone secretion, bovine parathyroid cells were prepared as described in the metabolism studies. These cells were grown for four days in serum-free media. […] Steady state PTH seretion was determined by washing the cells 3 times with Dulbecco's PBS and then placing them in serum free media for 3 hours. The media was collected, centrifuged at 4° C. and analyzed from PTH using CH9 antibody as described previously (Brown A. J. et al. (1992) Endocrinology 130:276-281). The cell monolayers were dissolved in 0.1 N NaOH and assayed for protein by method of Bradford using a kit from Biorad Laboratories. PTH secretion is expressed as picograms PTH per milligram cell protein (FIG. 20, panel B).
# [4] = tested on: human keratinocytes; assay: Metabolism in human keratinocytes (incubation, lipid extraction, HPLC); assay type: in vitro ADME
# Description: Keratinocytes were prepared as described previously (Kim H. […] First passage keratinocytes were seeded at 0.5×10^6 into […] flasks in keratinocytes growth media (KGM, Clonetics, Inc.). The cells were fed every 2-3 days. The cells were 70-80% confluent usually after 5 days. […] At the end of 24 hr incubation period in a 37° C., 5% CO2 incubator, an equal volume of methanol was added to the cultures. The cells were then scraped from the flasks and all of the media and the cells were pooled and lipid extraction was performed from both cells and media using the Bligh and Dyer technique. […] Zorbax-SIL column eluted with 6% isopropanol in hexane at a flow rate of 2 ml/min. […] Resulting lipid extracts were analyzed using the following HPLC conditions: Zorbax-SIL column eluted with 9% isopropanol in hexane at a flow rate of 2 ml/min. […] Lipid extracts of different time points were analyzed by straight phase HPLC. […] This metabolite peak appeared at 1 hr. incubation period and increased to its maximum by 3 hr.
# [5] = biological target: T1, plasma vitamin D binding protein (DBP); details: relative competitive index; RCI of 1α,25(OH)2D3 is by definition 100; cited from earlier work
# [6] = tested on: intestinal calcium transport; details: relative to 1α,25(OH)2D3 = 100; cited from earlier work
# [7] = tested on: bone calcium mobilization; details: relative to 1α,25(OH)2D3 = 100; cited from earlier work
# [8] = tested on: MG-63; details: relative to 1α,25(OH)2D3 = 100; cited from earlier work
# [9] = tested on: intestinal calcium mobilization; details: cited from earlier work
# [10] = tested on: rat osteosarcoma cell line UMR 106
# Description: (§1) In order to address whether vitamin D3 analogs can be converted to 3-epi forms, a number of analogs were tested in bone cells under identical experimental conditions as described in Example IX.
# [11] = tested on: Caco-2 cells; assay: Metabolism of synthetic analogs in Caco-2 cells (HPLC); assay type: in vitro ADME, human; details: for metabolites detected in subconfluent cells: Caco-2, 6 days after seeding; for metabolites detected in subconfluent cells / metabolites detected in confluent cells: 1 μM, 48 hours; for metabolites detected in confluent cells: Caco-2, 14 days after seeding
# Description: To address whether the epimerization of vitamin D3 analogs occurs in other tissues, the intestinal cell line Caco-2 was used as a model system to investigate the metabolism of two synthetic analogs of 1,25(OH)2D3 in intestinal epithelial cells. Subconfluent (6 days after seeding) and confluent (14 days after seeding) cells were incubated with 1 μM 1,25(OH)2-16-ene-D3 or 1,25(OH)2-16-ene-23-yne-D3, respectively, for 48 hours.
# [12] = tested on: human leukemic cells; assay: Proliferation and differentiation of human leukemic cells; assay type: cell-based; details: data not shown
# [13] = tested on: keratinocytes; details: J. Invest. Dermatol. 101:713-718, 1993; cited from earlier work
# [14] = tested on: HACAT cells; assay: Metabolism of 1α,25(OH)2D3 in immortalized human keratinocytes (HACAT); assay type: in vitro ADME; details: 24 hr, 1uM 1α,25(OH)2D3
# Source text: Primary cultures of human keratinocytes were used as a control (FIG. 12, panel A). The other three tissues tested included a cell line of immortalized human keratinocytes ([…] commonly studied cancer cell line (human promyelocytic leukemic cell line, HL-60) (FIG. 12, panel C), and perfused rat kidney (FIG. 12, Panel D). […] The experiments certainly establish the fact that the 3-epimerization is not ubiquitous, like the side chain oxidation pathways.
# [15] = tested on: bovine parathyroid cells; assay: Metabolism in bovine parathyroid cells (HPLC); assay type: in vitro ADME; details: 1 uM, 24 hours
# Description: Bovine parathyroid glands obtained from a local slaughterhouse were digested with collagenase and the cells were cultured as previously described (Brown A. J. et al. (1992) Endocrinology 130:276-281), and seeded at a density of 80,000 cells/cm^2. Cells were grown to confluence in six days in serum free medium. […]. Incubations were terminated with methanol, and the samples were sent to our laboratory for HPLC analysis. The lipid extract was analyzed using the straight phase HPLC system (Zorbax-SIL column eluted with 6% isopropanol inhexane at 2 ml/min flow rate). […]
# [16] = tested on: human osteosarcoma cell (U-2 OS); assay: Metabolism of 1α,25(OH)2D3 in human osteosarcoma cell (U-2 OS); assay type: in vitro ADME; details: 3×10^7 and 12×10^7 cells
# Description: HPLC profiles were determined at two different cell densities, 3×10^7 cells and 12×10^7 as shown in the upper and lower panels of the Figure, respectively.
# [17] = tested on: human placental explants; details: 1 uM 1α,25(OH)2D3
# [18] = tested on: rat osteosarcoma cell line UMR 106; assay: Metabolism in rat osteosarcoma cell line UMR 106 (HPLC); details: UMR 106, 1α,25(OH)2D3, 24 and 48 hours
# Description: as §1
# [19] = biological target: T2, vitamin D3 nuclear receptors (VD3R) (Rattus norvegicus, UniProt P13053); assay: Osteocalcin VDRE reporter gene transcription assay in transfected ROS-17/2.8 cells
# T2 sequence (P13053 1-423): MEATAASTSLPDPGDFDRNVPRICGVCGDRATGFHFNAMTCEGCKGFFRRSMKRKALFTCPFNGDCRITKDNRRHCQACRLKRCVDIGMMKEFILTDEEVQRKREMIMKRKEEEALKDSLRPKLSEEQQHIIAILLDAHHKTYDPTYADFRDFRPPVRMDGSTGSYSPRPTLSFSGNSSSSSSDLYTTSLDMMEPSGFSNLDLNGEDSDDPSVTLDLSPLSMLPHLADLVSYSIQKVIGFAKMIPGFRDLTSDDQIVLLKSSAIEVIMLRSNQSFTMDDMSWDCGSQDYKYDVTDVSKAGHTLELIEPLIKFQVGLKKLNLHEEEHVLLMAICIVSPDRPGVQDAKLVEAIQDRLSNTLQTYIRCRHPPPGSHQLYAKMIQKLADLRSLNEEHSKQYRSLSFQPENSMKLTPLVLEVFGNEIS
smiles,measurement,setting,value
"C=C1C(=CC=C2CCCC3(C)C2CCC3C(C)CCCC(C)(C)O)CC(O)CC1O (stereo not drawn) [1α,25(OH)2-3-epi-D3, 3-epi-1α,25-dihydroxycholecalciferol]","increase in the binding to plasma vitamin D binding protein (DBP) compared to 1α,25(OH)2D3",[1],eightfold
same,inhibition of keratinocyte growth,[2],significant biological activity
same,inhibition of PTH secretion,[3],significant biological activity
same,incubation time at which the tritiated metabolite reaches its maximum,[4],3 h
same,metabolism into more polar metabolites,[4],extensive metabolism
same,Binding to DBP (RCI),[5],800
same,Intestinal Calcium Transport,[6],2.8
same,Bone Calcium Mobilization,[7],1.5
same,Osteocalcin Synthesis MG-63,[8],17
same,Transcaltachia,"[9]; relative to 1α,25(OH)2D3",80%
same,Transcaltachia,"[9]; relative to 1α,25(OH)2D3 = 100",80
"C=C1/C(=C\C=C2/CCC[C@]3(C)C([C@@H](C)CCCC(C)(C)O)=CCC23)C[C@@H](O)C[C@@H]1O (stereo partly drawn) [1α,25(OH)2-16-ene-20-epi-D3]",conversion of vitamin D3 analog into less polar 3-epi metabolite,[10],3-epi form
"C=C1/C(=C\C=C2/CCC[C@]3(C)C([C@H](C)CC#CC(C)(C)O)=CC[C@@H]23)C[C@@H](O)C[C@@H]1O [1α,25(OH)2-16-ene-23-yne-D3]",metabolites detected in subconfluent cells,[11],no metabolites could be detected
same,metabolites detected in confluent cells,[11],3-epi forms
same,"rate of metabolism compared with 1,25(OH)2D3 or 1,25(OH)2-16-ene-D3","[11]; Caco-2, all growth conditions, data not shown",metabolized considerably slower
same,conversion of vitamin D3 analog into less polar 3-epi metabolite,[10],3-epi forms
"C=C1/C(=C\C=C2/CCC[C@]3(C)C([C@H](C)CCC(=O)C(C)(C)O)=CC[C@@H]23)C[C@@H](O)C[C@@H]1O [1α,25(OH)2-16-ene-24-oxo-D3]","potency at inhibiting growth of keratinocytes compared with 1α,25(OH)2-3-epi-D3",[2],"more potent than 1α,25(OH)2-3-epi-D3"
same,inhibition of keratinocyte growth,[2],equally potent
same,"modulating proliferating and differentiation of human leukemic cells, compared with parent compound",[12],equipotent effect as its parent compound
same,accumulation of metabolite relative to remaining unmetabolized substrate,[4]; human,exceeded the amounts of remaining unmetabolized substrate
"C=C1/C(=C\C=C2/CCC[C@]3(C)C([C@H](C)CCCC(C)(C)O)=CCC23)C[C@@H](O)C[C@@H]1O (stereo partly drawn) [1α,25(OH)2-16-ene-D3]","potency at inhibiting growth of keratinocytes compared with 1α,25(OH)2-3-epi-D3",[2],"more potent than 1α,25(OH)2-3-epi-D3"
same,inhibition of keratinocyte growth,[2],equally potent
same,metabolites detected in subconfluent cells,[11],"1,24,25(OH)3-16-ene-D3 and 1,25 (OH)2-24-oxo-16-ene-D3"
same,metabolites detected in confluent cells,[11],"3-epi form of 1,25(OH)2-16-ene-D3"
same,inhibiting proliferation and inducing differentiation of keratinocytes,[13],most potent of the analogs tested
"C=C1C(=CC=C2CCCC3(C)C2CCC3C(C)CCCC(C)(C)O)CC(O)CC1O (stereo not drawn) [1α,25(OH)2-20-epi-D3]",conversion of vitamin D3 analog into less polar 3-epi metabolite,[10],3-epi form
"C=C1/C(=C\C=C2/CCC[C@@]3(C)C2CCC3C(C)CCCC(C)(C)O)CC(O)C[C@@H]1O (stereo partly drawn) [1α,25(OH)2D3]",incubation time at which the tritiated metabolite reaches its maximum,"[4]; human keratinocytes from adult breast skin incubated with tritiated 25(OH)D3, physiological substrate concentration",1 to 2 h
same,"formation of 1α,25(OH)2-3-epi-D3 (peak M)","[4]; primary human keratinocytes, 24 hr, 1uM 1α,25(OH)2D3",is formed in keratinocytes and the HACAT cells
same,"formation of 1α,25(OH)2-3-epi-D3 (peak M)",[14],is formed in keratinocytes and the HACAT cells
same,"conversion into 1α,25(OH)2-3-epi-D3",[15],have the ability to convert
same,conversion into 3-epi form,[16],directly proportional to the concentration of cells
same,Intestinal Calcium Transport,[6],100
same,Bone Calcium Mobilization,[7],100
same,Osteocalcin Synthesis MG-63,[8],100
same,Transcaltachia,"[9]; relative to 1α,25(OH)2D3 = 100",100
same,epimerization of the 3-hydroxy group,[17],unable to epimerize
same,"formation of 1α,25(OH)2-3-epi-D3",[18],dose dependent
"C=C1C(=CC=C2CCCC3(C)C(C(C)CC#CC(C)(C)O)=CCC23)CC(O)CC1O (stereo not drawn) [3-epi-1,25-dihydroxy-16-ene-25-yne-cholecalciferol]",transcriptional activation in relation to isomeric counterpart,[19],slightly decreased
same,"transcriptional activity compared with 1α,25(OH)2D3",[19],"as active as 1α,25(OH)2D3"
same,induction of VD3R transcriptional activity,[19]; osteocalcin VDRE reporter,dose dependent manner
